Laboratory results as given in patent publication US11155517B2, “4-substituted phenylamine derivatives and their use to protect crops by fighting undesired phytopathogenic micoorganisms” (PI INDUSTRIES LTD., priority 2016, dated 2021).
Read-outs that look alike come from different tables or passages of the source.

How the values were obtained:
Pyricularia oryzae [1] = assay: microbe, parasite or virus in culture; assay type: cell-based; settings: for inhibition at 300 ppm: read-out: PYRIOR % inhibition; for inhibition of growth at 300 ppm: 168 h, read-out: % control compared to the untreated check (radial growth)
Rhizoctonia solani = Rhizoctonia solani (rice sheath blight/potato black scurf) in vitro test, radial growth on Potato Dextrose Agar; assay type: cell-based; settings: for inhibition at 300 ppm: Table 3 comparison, read-out: RHIZSO % inhibition; for inhibition of growth at 300 ppm: 168 h, seven days, 25° C., read-out: % control compared to the untreated check (radial growth)
Botrytis cinerea = Botrytis cinerea (gray mold) in vitro test, radial growth on Potato Dextrose Agar; assay type: cell-based; settings: for inhibition at 300 ppm: read-out: BOTRCI % inhibition; for inhibition of growth at 300 ppm: 168 h, seven days, 22° C., read-out: % (control) compared to the untreated check (radial growth)
Alternaria solani [2] = assay: Alternaria solani (early blight of tomato/potato) in vitro test, radial growth on Potato Dextrose Agar; assay type: cell-based; settings: for inhibition at 300 ppm: Table 3 comparison, read-out: ALTESO % inhibition; for inhibition of growth at 300 ppm: 168 h, seven days, 25° C., read-out: % control compared to the untreated check (radial growth)
Colletotrichum capsici = Colletotrichum capsici (anthracnose) in vitro test, radial growth on Potato Dextrose Agar; assay type: cell-based; settings: Colletotrichum truncatum; for inhibition at 300 ppm: Table 3 comparison, read-out: COLLCA % inhibition; for inhibition of growth at 300 ppm: 168 h, seven days, 25° C., read-out: % control compared to the untreated check (radial growth)
Fusarium culmorum [3] = assay: Fusarium culmorum (foot rot of cereals) in vitro test, radial growth on Potato Dextrose Agar; assay type: cell-based; settings: Fusarium culmorum; for inhibition at 300 ppm: Table 3 comparison, read-out: FUSACU % inhibition; for inhibition of growth at 300 ppm: 168 h, read-out: % control compared to the untreated check (radial growth)
Corynespora cassicola = assay: Table 3 comparative % inhibition, Corynespora cassicola (CORYCA); assay type: cell-based; settings: Table 3 comparison
Septoria lycopersici = Septoria lycopersici (leaf spot of tomato) in vitro test, radial growth on Potato Dextrose Agar; assay type: cell-based; settings: 168 h, seven days, 25° C., read-out: % control compared to the untreated check (radial growth)
Botrytis cinera = assay: Greenhouse Botrytis cinera test in tomato, preventive; assay type: in vivo; settings: 24 h, plants sprayed one day before inoculation, read-out: Efficacy (% control), disease severity vs untreated check
Fusarium culmorum [4] = assay: Greenhouse Fusarium culmorum test in wheat, preventive; assay type: in vivo; settings: 24 h, read-out: Efficacy (% control), disease severity vs untreated check
How it was run: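 Young greenhouse wheat sprayed preventively at stated rates (compounds in 2% DMSO/acetone, diluted in water), inoculated one day later with 2×10^6 Fusarium culmorum spores in 2% malt, held at 24 °C, 80-90% RH. Disease severity (0-100%) rated 3, 7, 10 and 15 days after application; % control versus untreated, phytotoxicity also recorded.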

Pyricularia oryzae [5] = assay: whole plant or invertebrate; assay type: in vivo; settings: 24 h, read-out: Efficacy (% control), disease severity vs untreated check
Alternaria solani [6] = assay: Greenhouse Alternaria solani test in tomato, preventive; assay type: in vivo; settings: 24 h, tomato plants sprayed one day before inoculation, read-out: Efficacy (% control), disease severity vs untreated check
How it was run: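 Preventive test: greenhouse tomato plants sprayed with compounds (2% DMSO/acetone in water) at stated rates, inoculated one day later with Alternaria solani spores (0.24×10^6 in 2% malt), held at 22-24 °C, 90-95% RH. % control versus untreated plants; phytotoxicity also scored.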

[7] = Dose 300 ppm, Table 3 comparison

| SMILES | inhibition at 300 ppm (Pyricularia oryzae [1]) [%] | inhibition at 300 ppm (Rhizoctonia solani) [%] | inhibition at 300 ppm (Botrytis cinerea; [7]) [%] | inhibition at 300 ppm (Alternaria solani [2]) [%] | inhibition at 300 ppm (Colletotrichum capsici) [%] | inhibition at 300 ppm (Fusarium culmorum [3]) [%] | inhibition at 300 ppm (Corynespora cassicola) [%] | inhibition of growth at 300 ppm (Pyricularia oryzae [1]) [%] | inhibition of growth at 300 ppm (Rhizoctonia solani) [%] | inhibition of growth at 300 ppm (Botrytis cinerea) [%] | inhibition of growth at 300 ppm (Alternaria solani [2]) [%] | inhibition of growth at 300 ppm (Colletotrichum capsici) [%] | inhibition of growth at 300 ppm (Septoria lycopersici) [%] | inhibition of growth at 300 ppm (Fusarium culmorum [3]) [%] | pest or weed control at 500 ppm (Botrytis cinera) [%] | inhibition at 300 ppm (Botrytis cinerea) [%] | pest or weed control at 500 ppm (Fusarium culmorum [4]) [%] | pest or weed control at 500 ppm (Pyricularia oryzae [5]) [%] | pest or weed control at 500 ppm (Alternaria solani [6]) [%] |
| --- | --- | --- | --- | --- | --- | --- | --- | --- | --- | --- | --- | --- | --- | --- | --- | --- | --- | --- | --- |
| Cc1cc(C(C#N)c2cccc(C(F)(F)F)c2)c(C)cc1N=CN(C)C (centres unmarked) [N′-(4-(cyano(3-(trifluoromethyl)phenyl)methyl)-2,5-dimethylphenyl)-N,N-dimethylformimidamide, reference compound] | 100 | 80.9 | 77.3 | 79.8 | 41.3 | 0 | 58.7 |  |  |  |  |  |  |  |  |  |  |  |  |
| CCN(C)C=Nc1cc(C)c(Cc2ccccc2F)cc1C [Compound 15, N-ethyl-N′-(4-(2-fluorobenzyl)-2,5-dimethylphenyl)-N-methylformimidamide] | 100 | 100 | 100 | 100 | 100 | 100 | 100 | > 75 | > 80 | > 80 | > 75 | > 80 | > 70 | 75 | 70 to 100 |  |  |  |  |
| CCN(C)C=Nc1cc(C)c(Cc2ccccc2)cc1Cl [Compound 74, N′-(4-benzyl-2-chloro-5-methylphenyl)-N-ethyl-N-methylformimidamide] | 100 | 100 |  | 100 | 100 | 94.5 | 71.2 | > 75 | > 80 | > 80 | > 75 | > 80 | > 70 | 75 |  | 94.5 |  |  |  |
| CCN(C)C=Nc1cc(C)c(Cc2ccccc2)cc1C [Compound 1, N′-(4-benzyl-2,5-dimethylphenyl)-N-ethyl-N-methylformimidamide] | 100 | 100 | 100 | 100 | 100 | 100 | 100 | > 75 | > 80 | > 80 | > 75 | > 80 | > 70 | 75 | 70 to 100 |  | 70 to 100 |  |  |
| CCN(C)C=Nc1cc(C)c(Cc2ccc(C#N)cc2)cc1C [Compound 48, N′-(4-(4-cyanobenzyl)-2,5-dimethylphenyl)-N-ethyl-N-methylformimidamide] |  |  |  |  |  |  |  | > 75 | > 80 | > 80 | > 75 | > 80 | > 70 | 75 |  |  |  | 70 to 100 | 70 to 100 |
| CCN(C)C=Nc1cc(C)c(Cc2ccccc2F)cc1Cl [Compound 16, N′-(2-chloro-4-(2-fluorobenzyl)-5-methylphenyl)-N-ethyl-N-methylformimidamide] | 100 | 100 | 100 | 100 | 100 | 100 | 100 | > 75 | > 80 | > 80 | > 75 | > 80 | > 70 | 75 |  |  | 70 to 100 |  |  |
| CCN(C)C=Nc1cc(C)c(C(C#N)c2cccc(C(F)(F)F)c2)cc1C (centres unmarked) [N′-(4-(cyano(3-(trifluoromethyl)phenyl)methyl)-2,5-dimethylphenyl)-N-ethyl-N-methylformimidamide] | 100 | 100 | 100 | 100 | 100 | 0 | 64.4 |  |  |  |  |  |  |  |  |  |  |  |  |
